Laboratory results taken from US8895261B2, “Use of fluorescent saccharide-based derivative” (I-Shou University, priority 2012, dated 2014).

System: fibroblast 3T3 cells
Experiment: Cellular uptake of fluorescent saccharide-based derivative in fibroblast 3T3 cells (fluorescence microscopy)
Assay type: cell-based
Conditions: 100 μl of 0.5 mg/ml added to 3T3 cells, reacting overnight; FIG. 2G
Procedure: 1. Cultivate the fibroblast 3T3 cells in a DMEM medium (the DMEM medium contains 10% fetal bovine serum, 5 mM pyruvic acid, and antibiotics). The cells are cultivated in an incubator containing 5% CO2.
2. When the cells grow and occupy 80% of the bottom of the culture flask through cell division, suck out the culture medium and wash with 1×PBS, then add 0.05% trypsin to react for 1 minute in order to separate the cells, and add 5 ml culture medium, then centrifuge with […] for 10 minutes.
3. After centrifugation, remove the supernatant, then add 5 ml of culture medium, and evenly mix the cells and the culture medium. Take 30 μl of the cell solution and mix with 270 μl of trypan blue, then take 100 μl and place on a cytometer, and count the cell number using erythrocytomertry.
4. After counting the cells, adjust the cell number to 1×10^4 cells/ml, and take 1 ml of the cells and plant into a 24-well culture plate containing a glass slide, then place the cells in a cell incubator at 37° C. and 5% CO2. Incubate for 1 day, and then add 100 μl of 0.5 mg/ml glucosylglycine. After reacting overnight, wash twice with 1×PBS (10 minutes/turn).
5. Add 4% paraformaldehyde to the culture plate, and place in room temperature for twenty minutes to fix the cells, then remove the paraformaldehyde and wash 3 times with 1×PBS (10 minutes/turn).
6. […]

SMILES: O=C(O)CNC1O[C@H](CO)[C@@H](O)[C@H](O)[C@H]1O (stereo partly drawn) [glucosylglycine, D-glucosylglycine]
- cell uptake (cells emit fluorescence after being fed): uptakable by cells
